Measurements published in ChEMBL document CHEMBL5291721, “A preclinical secondary pharmacology resource illuminates target-adverse drug reaction associations of marketed drugs” (Nat Commun, 2023).

What was measured:
[1] = molecular target: 3',5'-cyclic-AMP phosphodiesterase 4A (Homo sapiens, UniProt P27815); assay type: functional
[2] = molecular target: T1, Muscarinic acetylcholine receptor M1 (Homo sapiens, UniProt P11229); assay type: functional, cell-based
T1 sequence (P11229 whole entry): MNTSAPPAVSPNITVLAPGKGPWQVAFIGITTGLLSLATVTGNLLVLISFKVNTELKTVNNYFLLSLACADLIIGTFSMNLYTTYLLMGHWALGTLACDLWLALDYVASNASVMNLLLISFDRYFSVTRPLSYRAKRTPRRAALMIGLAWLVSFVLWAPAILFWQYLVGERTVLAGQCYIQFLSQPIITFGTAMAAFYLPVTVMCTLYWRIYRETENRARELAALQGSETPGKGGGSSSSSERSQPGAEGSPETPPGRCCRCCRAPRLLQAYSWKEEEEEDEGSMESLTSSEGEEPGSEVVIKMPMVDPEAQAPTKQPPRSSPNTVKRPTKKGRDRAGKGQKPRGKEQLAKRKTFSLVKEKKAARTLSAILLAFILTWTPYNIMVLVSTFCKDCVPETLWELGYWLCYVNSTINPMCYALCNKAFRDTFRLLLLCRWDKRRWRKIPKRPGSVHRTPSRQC

[3] = molecular target: T2, Alpha-1A adrenergic receptor (Homo sapiens, UniProt P35348); assay type: functional, cell-based
T2 sequence (P35348 whole entry): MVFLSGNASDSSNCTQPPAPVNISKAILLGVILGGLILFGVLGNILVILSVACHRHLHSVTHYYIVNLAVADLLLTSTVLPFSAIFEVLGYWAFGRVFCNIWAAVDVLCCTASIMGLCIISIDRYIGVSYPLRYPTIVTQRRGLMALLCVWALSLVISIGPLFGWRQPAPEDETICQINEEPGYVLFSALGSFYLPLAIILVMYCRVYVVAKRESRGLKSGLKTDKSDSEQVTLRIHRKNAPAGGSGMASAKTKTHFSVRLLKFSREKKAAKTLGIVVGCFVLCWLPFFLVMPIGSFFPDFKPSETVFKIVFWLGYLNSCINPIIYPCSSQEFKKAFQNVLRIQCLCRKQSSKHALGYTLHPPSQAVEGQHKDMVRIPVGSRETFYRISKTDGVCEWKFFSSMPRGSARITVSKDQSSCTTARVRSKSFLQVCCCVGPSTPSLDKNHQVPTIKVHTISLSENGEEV

[4] = molecular target: T3, Adenosine receptor A3 (Homo sapiens, UniProt P0DMS8)
T3 sequence (P0DMS8 whole entry): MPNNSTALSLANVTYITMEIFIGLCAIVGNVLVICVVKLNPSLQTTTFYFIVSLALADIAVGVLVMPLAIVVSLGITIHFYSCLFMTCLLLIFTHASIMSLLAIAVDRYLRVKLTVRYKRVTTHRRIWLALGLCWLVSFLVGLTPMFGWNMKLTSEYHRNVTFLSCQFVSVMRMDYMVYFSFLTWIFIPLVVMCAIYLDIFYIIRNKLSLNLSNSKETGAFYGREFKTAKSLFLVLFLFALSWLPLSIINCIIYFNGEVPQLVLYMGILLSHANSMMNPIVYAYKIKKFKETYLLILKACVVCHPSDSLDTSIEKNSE

[5] = molecular target: Histamine H3 receptor (Homo sapiens, UniProt Q9Y5N1)
Chain of Histamine H3 receptor (Q9Y5N1 whole entry): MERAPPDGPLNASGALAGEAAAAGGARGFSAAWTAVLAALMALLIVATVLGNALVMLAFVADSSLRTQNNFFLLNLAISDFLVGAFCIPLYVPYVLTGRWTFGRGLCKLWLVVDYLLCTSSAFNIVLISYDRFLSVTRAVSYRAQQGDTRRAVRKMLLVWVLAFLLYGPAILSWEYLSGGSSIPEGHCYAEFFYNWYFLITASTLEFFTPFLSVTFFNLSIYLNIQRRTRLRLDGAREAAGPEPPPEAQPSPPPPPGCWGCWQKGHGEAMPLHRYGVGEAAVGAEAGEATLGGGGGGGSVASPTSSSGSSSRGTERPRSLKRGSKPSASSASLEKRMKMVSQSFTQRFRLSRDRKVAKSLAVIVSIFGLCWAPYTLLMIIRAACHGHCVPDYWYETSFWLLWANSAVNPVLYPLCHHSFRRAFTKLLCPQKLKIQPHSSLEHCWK

[6] = molecular target: Glutamate receptor ionotropic, NMDA 1 (Rattus norvegicus, UniProt P35439)
[7] = molecular target: Sodium-dependent dopamine transporter (Homo sapiens, UniProt Q01959)
Chain of Sodium-dependent dopamine transporter (Q01959 whole entry): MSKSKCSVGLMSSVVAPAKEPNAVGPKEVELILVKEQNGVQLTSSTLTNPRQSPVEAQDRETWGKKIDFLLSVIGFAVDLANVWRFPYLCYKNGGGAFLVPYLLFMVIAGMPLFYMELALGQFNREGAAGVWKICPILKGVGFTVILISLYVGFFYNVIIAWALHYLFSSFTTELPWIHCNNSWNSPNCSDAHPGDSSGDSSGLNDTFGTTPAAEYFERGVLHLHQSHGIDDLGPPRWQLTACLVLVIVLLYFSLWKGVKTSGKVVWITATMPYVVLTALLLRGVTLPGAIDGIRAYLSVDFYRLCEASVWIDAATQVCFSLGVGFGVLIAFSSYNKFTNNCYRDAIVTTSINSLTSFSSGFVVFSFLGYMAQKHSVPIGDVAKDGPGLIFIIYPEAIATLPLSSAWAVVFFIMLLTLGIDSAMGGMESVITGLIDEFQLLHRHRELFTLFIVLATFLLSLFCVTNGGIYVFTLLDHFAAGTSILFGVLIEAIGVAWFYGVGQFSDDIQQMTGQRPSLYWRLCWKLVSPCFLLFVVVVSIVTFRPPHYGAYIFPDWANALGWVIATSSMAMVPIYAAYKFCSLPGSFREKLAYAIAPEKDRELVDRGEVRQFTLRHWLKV

[8] = molecular target: Cannabinoid receptor 1 (Homo sapiens, UniProt P21554); assay type: functional, cell-based
Chain of Cannabinoid receptor 1 (P21554 whole entry): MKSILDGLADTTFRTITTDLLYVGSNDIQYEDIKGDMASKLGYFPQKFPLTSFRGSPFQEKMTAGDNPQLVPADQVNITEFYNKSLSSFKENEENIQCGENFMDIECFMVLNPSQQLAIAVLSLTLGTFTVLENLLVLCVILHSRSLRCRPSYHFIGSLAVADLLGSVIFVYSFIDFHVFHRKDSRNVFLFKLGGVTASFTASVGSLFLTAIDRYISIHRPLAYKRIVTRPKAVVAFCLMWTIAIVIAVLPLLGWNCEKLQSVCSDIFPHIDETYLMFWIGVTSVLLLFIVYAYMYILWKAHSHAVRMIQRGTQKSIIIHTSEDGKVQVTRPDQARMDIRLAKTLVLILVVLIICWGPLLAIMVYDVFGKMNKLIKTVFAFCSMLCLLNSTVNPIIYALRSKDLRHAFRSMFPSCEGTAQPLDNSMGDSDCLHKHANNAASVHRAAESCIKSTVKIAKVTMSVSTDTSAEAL

[9] = molecular target: T4, Gastrin/cholecystokinin type B receptor (Homo sapiens, UniProt P32239)
T4 sequence (P32239 whole entry): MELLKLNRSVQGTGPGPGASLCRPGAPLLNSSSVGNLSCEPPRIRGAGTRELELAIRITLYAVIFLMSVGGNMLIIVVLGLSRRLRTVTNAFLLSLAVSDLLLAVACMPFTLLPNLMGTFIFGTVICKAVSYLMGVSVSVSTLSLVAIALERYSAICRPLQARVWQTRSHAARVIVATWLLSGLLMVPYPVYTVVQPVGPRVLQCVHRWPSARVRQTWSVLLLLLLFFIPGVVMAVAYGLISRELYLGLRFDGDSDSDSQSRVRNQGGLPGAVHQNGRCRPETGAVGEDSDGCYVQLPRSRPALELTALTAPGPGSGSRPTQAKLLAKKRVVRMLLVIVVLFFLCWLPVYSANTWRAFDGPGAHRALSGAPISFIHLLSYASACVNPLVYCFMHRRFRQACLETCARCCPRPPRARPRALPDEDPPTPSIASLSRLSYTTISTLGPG

[10] = molecular target: T5, Progesterone receptor (Homo sapiens, UniProt P06401); assay type: functional
T5 sequence (P06401 whole entry): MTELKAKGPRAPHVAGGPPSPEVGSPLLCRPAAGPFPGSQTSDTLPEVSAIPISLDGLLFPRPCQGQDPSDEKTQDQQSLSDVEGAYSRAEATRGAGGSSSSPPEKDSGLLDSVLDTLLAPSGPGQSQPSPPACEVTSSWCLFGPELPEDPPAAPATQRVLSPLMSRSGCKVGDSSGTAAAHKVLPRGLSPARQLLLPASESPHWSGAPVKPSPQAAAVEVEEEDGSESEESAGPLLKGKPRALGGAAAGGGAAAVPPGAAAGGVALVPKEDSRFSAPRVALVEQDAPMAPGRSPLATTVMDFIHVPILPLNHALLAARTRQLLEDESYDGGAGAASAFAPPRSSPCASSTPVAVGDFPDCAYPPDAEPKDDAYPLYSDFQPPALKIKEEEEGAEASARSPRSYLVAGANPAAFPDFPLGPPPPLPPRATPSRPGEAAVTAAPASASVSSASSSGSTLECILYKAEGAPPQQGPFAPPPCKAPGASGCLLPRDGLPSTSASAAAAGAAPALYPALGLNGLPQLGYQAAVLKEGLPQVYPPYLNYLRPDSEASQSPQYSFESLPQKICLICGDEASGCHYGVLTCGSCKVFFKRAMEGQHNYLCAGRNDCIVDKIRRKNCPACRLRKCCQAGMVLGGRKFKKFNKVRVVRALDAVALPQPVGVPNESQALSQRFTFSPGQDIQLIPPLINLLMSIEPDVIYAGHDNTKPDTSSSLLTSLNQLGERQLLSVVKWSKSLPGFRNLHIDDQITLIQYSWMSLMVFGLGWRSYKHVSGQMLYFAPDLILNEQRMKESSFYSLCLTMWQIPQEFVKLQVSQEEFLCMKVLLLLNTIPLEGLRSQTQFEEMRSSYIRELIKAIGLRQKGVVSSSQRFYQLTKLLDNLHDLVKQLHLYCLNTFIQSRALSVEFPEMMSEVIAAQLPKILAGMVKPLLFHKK
Also: assay procedure not described here.

Chain of 3',5'-cyclic-AMP phosphodiesterase 4A (P27815 whole entry): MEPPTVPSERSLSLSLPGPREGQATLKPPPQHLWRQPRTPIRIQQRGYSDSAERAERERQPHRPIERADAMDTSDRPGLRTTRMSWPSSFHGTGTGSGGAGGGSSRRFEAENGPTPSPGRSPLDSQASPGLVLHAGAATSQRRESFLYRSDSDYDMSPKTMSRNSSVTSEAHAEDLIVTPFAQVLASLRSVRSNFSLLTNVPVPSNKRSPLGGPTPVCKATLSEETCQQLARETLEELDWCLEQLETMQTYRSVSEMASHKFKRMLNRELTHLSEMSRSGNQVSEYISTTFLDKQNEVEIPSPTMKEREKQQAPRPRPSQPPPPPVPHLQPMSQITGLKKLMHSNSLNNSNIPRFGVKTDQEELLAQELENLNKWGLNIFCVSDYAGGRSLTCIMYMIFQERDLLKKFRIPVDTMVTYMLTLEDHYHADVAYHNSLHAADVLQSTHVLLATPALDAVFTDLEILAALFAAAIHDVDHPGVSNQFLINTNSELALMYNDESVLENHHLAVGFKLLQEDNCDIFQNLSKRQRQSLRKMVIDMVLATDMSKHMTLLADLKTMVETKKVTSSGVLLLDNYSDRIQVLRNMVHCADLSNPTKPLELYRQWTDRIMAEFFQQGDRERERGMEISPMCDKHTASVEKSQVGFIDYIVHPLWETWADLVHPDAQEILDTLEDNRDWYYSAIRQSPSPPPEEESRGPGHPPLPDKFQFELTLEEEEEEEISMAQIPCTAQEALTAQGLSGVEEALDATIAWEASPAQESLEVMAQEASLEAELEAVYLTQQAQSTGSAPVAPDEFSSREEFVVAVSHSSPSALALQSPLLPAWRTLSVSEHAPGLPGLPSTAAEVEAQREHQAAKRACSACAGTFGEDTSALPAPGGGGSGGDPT

OC[C@H]1NC[C@H](O)[C@@H](O)[C@H]1O
AC50 [1]: > 30 µM | AC50 [2]: > 30 µM | AC50 [3]: > 30 µM | AC50 [4]: > 30 µM | AC50 [5]: > 30 µM

CCOC(=O)[C@H](CCc1ccccc1)N[C@@H](C)C(=O)N1Cc2ccccc2C[C@H]1C(=O)O
AC50 [1]: > 30 µM | AC50 [6]: > 10 µM | AC50 [7]: > 10 µM | AC50 [8]: > 30 µM | AC50 [9]: > 30 µM | AC50 [3]: > 30 µM | AC50 [4]: > 30 µM | AC50 [5]: > 30 µM

CC#CC(=O)N1CCC[C@H]1c1nc(-c2ccc(C(=O)Nc3ccccn3)cc2)c2c(N)nccn12 [ACALABRUTINIB]
AC50 [1]: > 30 µM | AC50 [2]: > 30 µM | AC50 [3]: > 30 µM | AC50 [5]: > 30 µM

C=CCOc1ccc(CC(=O)O)cc1Cl [ALCLOFENAC]
AC50 [1]: > 30 µM | AC50 [2]: > 30 µM | AC50 [3]: > 30 µM | AC50 [4]: > 30 µM | AC50 [5]: > 30 µM

CN(C)CCC=C1c2ccccc2CCc2ccccc21 [AMITRIPTYLINE]
AC50 [1]: > 30 µM | AC50 [6]: > 10 µM | AC50 [7]: 13.8 µM | AC50 [10]: > 30 µM | AC50 [8]: > 30 µM | AC50 [9]: > 30 µM | AC50 [4]: > 30 µM | AC50 [5]: > 30 µM

CC(=O)Oc1ccccc1C(=O)O [ASPIRIN]
AC50 [1]: > 30 µM | AC50 [6]: > 10 µM | AC50 [7]: > 30 µM | AC50 [8]: > 30 µM | AC50 [9]: > 30 µM | AC50 [3]: > 30 µM | AC50 [4]: > 30 µM | AC50 [5]: > 30 µM

NC(=O)C1(N2CCCCC2)CCN(CCCN2c3ccccc3CCc3ccccc32)CC1 [CARPIPRAMINE]
AC50 [1]: > 30 µM | AC50 [2]: 22 µM | AC50 [4]: > 30 µM | AC50 [5]: 11.7 µM

CN1CCN(C(c2ccccc2)c2ccc(Cl)cc2)CC1 (stereo not drawn) [CHLORCYCLIZINE]
AC50 [1]: > 30 µM | AC50 [2]: > 30 µM | AC50 [3]: 4.86 µM | AC50 [4]: > 30 µM | AC50 [5]: 15.8 µM

CN(C)CCCC1(c2ccc(F)cc2)OCc2cc(C#N)ccc21 (stereo not drawn) [CITALOPRAM]
AC50 [1]: > 30 µM | AC50 [6]: > 10 µM | AC50 [8]: > 30 µM | AC50 [9]: > 30 µM | AC50 [4]: > 30 µM | AC50 [5]: > 30 µM

CCCCCCCCCCCCCCCC(=O)OC[C@H](COP(=O)([O-])OCC[N+](C)(C)C)OC(=O)CCCCCCCCCCCCCCC [COLFOSCERIL PALMITATE]
AC50 [1]: > 30 µM | AC50 [2]: > 30 µM | AC50 [3]: > 30 µM | AC50 [5]: > 30 µM

O=P1(N(CCCl)CCCl)NCCCO1 (stereo not drawn) [CYCLOPHOSPHAMIDE ANHYDROUS]
AC50 [1]: > 30 µM | AC50 [3]: > 30 µM | AC50 [4]: > 30 µM | AC50 [5]: > 30 µM

CC(C)Nc1cccnc1N1CCN(C(=O)c2cc3cc(NS(C)(=O)=O)ccc3[nH]2)CC1 [DELAVIRDINE]
AC50 [1]: > 30 µM | AC50 [2]: > 30 µM | AC50 [3]: > 30 µM | AC50 [4]: 21.4 µM | AC50 [5]: > 30 µM

C[C@@H](CN1CC(=O)NC(=O)C1)N1CC(=O)NC(=O)C1 [DEXRAZOXANE]
AC50 [1]: > 30 µM | AC50 [2]: > 30 µM | AC50 [3]: > 30 µM | AC50 [4]: > 30 µM | AC50 [5]: > 30 µM

C[C@]12CC[C@@H]3c4ccc(OC(=O)N(CCCl)CCCl)cc4CC[C@H]3[C@@H]1CC[C@@H]2OP(=O)(O)O [ESTRAMUSTINE PHOSPHATE]
AC50 [1]: > 30 µM | AC50 [2]: > 30 µM | AC50 [3]: > 30 µM | AC50 [4]: 7.84 µM | AC50 [5]: > 30 µM

O=c1[nH]cc(F)c(=O)[nH]1 [FLUOROURACIL]
AC50 [1]: > 30 µM | AC50 [7]: > 30 µM | AC50 [10]: > 30 µM | AC50 [9]: > 30 µM | AC50 [3]: > 30 µM | AC50 [5]: > 30 µM

NCC1(CC(=O)O)CCCCC1 [GABAPENTIN]
AC50 [1]: > 30 µM | AC50 [6]: > 10 µM | AC50 [7]: > 30 µM | AC50 [10]: > 30 µM | AC50 [8]: > 30 µM | AC50 [9]: > 30 µM | AC50 [3]: > 30 µM | AC50 [4]: > 30 µM | AC50 [5]: > 30 µM

CNC1(c2ccccc2Cl)CCCCC1=O (stereo not drawn) [KETAMINE]
AC50 [1]: > 30 µM | AC50 [3]: > 30 µM | AC50 [4]: > 30 µM | AC50 [5]: > 30 µM

O=NN(CCCl)C(=O)NC1CCCCC1 [LOMUSTINE]
AC50 [1]: 25.7 µM | AC50 [3]: > 3 µM | AC50 [4]: > 30 µM | AC50 [5]: > 30 µM

O=C1[C@@H]2[C@H]3CC[C@H](C3)[C@@H]2C(=O)N1C[C@@H]1CCCC[C@H]1CN1CCN(c2nsc3ccccc23)CC1 [LURASIDONE]
AC50 [1]: 22.5 µM | AC50 [10]: > 30 µM | AC50 [8]: > 30 µM | AC50 [4]: 6.36 µM | AC50 [5]: > 30 µM

CO[C@@]1(NC(=O)C(C(=O)O)c2ccc(O)cc2)C(=O)N2C(C(=O)O)=C(CSc3nnnn3C)CO[C@@H]21 (stereo partly drawn) [MOXALACTAM]
AC50 [1]: > 30 µM | AC50 [2]: > 30 µM | AC50 [3]: > 30 µM | AC50 [5]: > 30 µM

CS(=O)(=O)Nc1ccc([N+](=O)[O-])cc1Oc1ccccc1 [NIMESULIDE]
AC50 [1]: > 10 µM | AC50 [6]: > 30 µM | AC50 [7]: 9 µM | AC50 [10]: > 30 µM | AC50 [8]: > 30 µM | AC50 [9]: > 30 µM | AC50 [3]: > 30 µM | AC50 [5]: > 30 µM

CCCCCCCC/C=C\CCCCCCCC(=O)O [OLEIC ACID]
AC50 [1]: > 30 µM | AC50 [2]: > 30 µM | AC50 [3]: > 30 µM | AC50 [5]: > 30 µM

COc1cccc2c1C(=O)c1c(O)c3c(c(O)c1C2=O)C[C@@](O)(C(=O)CO)C[C@@H]3O[C@H]1C[C@H](N)[C@H](O[C@@H]2CCCCO2)[C@H](C)O1 [PIRARUBICIN]
AC50 [1]: > 30 µM | AC50 [2]: > 1 µM | AC50 [3]: > 10 µM | AC50 [5]: > 30 µM

Cc1c(C)c2c(c(C)c1O)CCC(C)(COc1ccc(CC3SC(=O)NC3=O)cc1)O2 (stereo not drawn) [TROGLITAZONE]
AC50 [1]: 4.9 µM | AC50 [6]: > 30 µM | AC50 [7]: 23.7 µM | AC50 [10]: > 30 µM | AC50 [8]: > 30 µM | AC50 [9]: > 30 µM | AC50 [3]: 3.96 µM | AC50 [4]: 3.29 µM | AC50 [5]: > 30 µM
